{
  "source": "paper PMC6556898",
  "about": "(Biomaterials, 2018)",
  "key": {"[1]": {"tested_on": "HIV-1ADA", "test": "Antiretroviral activity: reverse transcriptase", "format": "cell-based"}, "[2]": {"tested_on": "human monocyte-derived macrophages (MDM)", "test": "MTT cell vitality assay", "format": "cell-based", "conditions": "12 hours"}},
  "data": [
    {"smiles": "Cc1cc(/C=C/C#N)cc(C)c1Nc1ccnc(Nc2ccc(C#N)cc2)n1", "note": "[native RPV, rilpivirine]", "values": [
      {"measurement": "RT activity (progeny HIV virion production)", "setting": "[1]; 6.25 μM for 8 hours, challenge at day 5, MOI 0.1, 10 days post infection", "result": "virtually no protection"},
      {"measurement": "RT activity (progeny HIV virion production)", "setting": "[1]; 12.5 mM RPV equivalents (printed) for 8 hours, challenge at day 5", "result": "no protection"},
      {"measurement": "cell vitality (MTT)", "setting": "[2]; 200 μM (RPV), highest concentration tested", "result": 37.9, "unit": "%"},
      {"measurement": "effect on cell vitality (MTT)", "setting": "[2]; up to 50 μM (RPV)", "result": "little effect on cell vitality"}
    ]}
  ]
}
